Publication PMC8011926 (Journal of Medicinal Chemistry, 2020)
Non-standard residues stand in square brackets, D forms with d. Residues, ends and D or L forms follow the SMILES beside them. No end group written: not given here.

What was measured:
[1] = biological target: T1, NOP receptor (NOP-RLuc/Gβ1-RGFP) (Homo sapiens, UniProt P41146); test: NOP/G protein interaction, BRET assay in membranes; format: biochemical; details: for NOP/G protein pEC50 (CL95%): BRET, membranes (3 μg protein) from HEK293 cells co-expressing NOP-RLuc/Gβ1-RGFP, room temperature, mean of five independent experiments in duplicate, 95% confidence limits; for NOP/G protein α ± sem (intrinsic activity): Emax of ligand / Emax of N/OFQ(1–13)-NH2, mean ± sem of five experiments in duplicate; for NOP/G protein CR (concentration ratio): ratio between EC50 of the ligand and that of the standard agonist N/OFQ(1–13)-NH2
T1 construct: expressed in transfected cells; host or cells: HEK293 (enriched plasma membranes)
T1 sequence (P41146 whole entry): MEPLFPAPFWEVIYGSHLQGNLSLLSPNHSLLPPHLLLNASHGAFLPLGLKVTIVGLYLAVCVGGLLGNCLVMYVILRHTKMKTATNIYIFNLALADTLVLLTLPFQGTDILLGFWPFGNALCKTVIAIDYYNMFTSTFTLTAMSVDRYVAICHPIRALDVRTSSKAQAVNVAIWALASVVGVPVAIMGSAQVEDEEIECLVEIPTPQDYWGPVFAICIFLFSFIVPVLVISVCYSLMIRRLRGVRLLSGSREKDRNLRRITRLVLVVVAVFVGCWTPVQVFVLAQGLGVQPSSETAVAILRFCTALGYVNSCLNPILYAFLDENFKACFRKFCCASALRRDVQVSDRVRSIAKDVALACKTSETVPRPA
Experimental: (§1) For this study, human embryonic kidney (HEK293) cells, permanently co-expressing the different pairs of fusion proteins NOP-RLuc/Gβ1-RGFP and NOP-RLuc/β-arrestin 2-RGFP, and SH-SY5Y cells stably, co-expressing the different pairs of fusion proteins mu-RLuc/Gβ1-RGFP and mu-RLuc/β-arrestin 2-RGFP or delta-RLuc/Gβ1-RGFP and delta-RLuc/β-arrestin 2-RGFP, were used. Cells were prepared and cultured, as described previously.[19],[23] Cells were grown in Dulbecco’s modified Eagle’s medium (DMEM)/HAMS F12 (1:1) supplemented with 10% fetal bovine serum, penicillin G (100 units/mL), streptomycin (100 μg mL^–1), L-glutamine (2 mM), fungizone (1 μg mL^–1), geneticin (G418; 200 μg mL^–1), and hygromycin B (100 μg mL^–1) in a humidified atmosphere of 5% CO2 at 37 °C. For G protein experiments, enriched plasma membrane aliquots from transfected cells were prepared by differential centrifugation; cells were detached with phosphate buffered saline (PBS)/EDTA solution (1 mM, pH 7.4 NaOH), then, after 5 min 500g centrifugation, Dounce-homogenized (30 strokes) in cold homogenization buffer (tris(hydroxymethyl)aminomethane 5 mM, EGTA 1 mM, DTT 1 mM, pH 7.4 HCl) in the presence of sucrose (0.32 M). Three following centrifugations were performed at 10 min 1000g (4 °C), and the supernatants were kept. Two 20 min 24,000g (4 °C) subsequent centrifugations (the second in the absence of sucrose) were performed for separating enriched membranes that, after discarding the supernatant, were kept in ultrapure water at −80 °C.[67] The protein concentration in membrane preparations was determined using the QPRO-BCA kit (Cyanagen Srl, Bologna, IT) and the Ensight (PerkinElmer, Waltham, USA) in the spectrophotometer mode.
(§2) Luminescence in membranes was recorded in 96-well untreated white opaque microplates, while in whole cells, it was recorded in 96-well sterile poly-D-lysine-coated white opaque microplates (PerkinElmer, Waltham, MA, USA) using the luminometer Victor 2030 (PerkinElmer, Waltham, MA, USA). For the determination of receptor/G protein interactions, membranes (3 μg of protein) prepared from cells co-expressing NOP (or mu or delta)/RLuc and Gβ1/RGFP were added to wells in DPBS. For the determination of receptor/β-arrestin 2 interactions, cells co-expressing NOP (or mu or delta)/RLuc and β-arrestin 2/RGFP were plated 24 h before the experiment in poly-D-lysine-treated plates (100,000 cells/well). The cells were prepared for the experiment substituting the medium with PBS with MgCl2 (0.5 mM) and CaCl2 (0.9 mM). Coelenterazine at a final concentration of 5 μM was injected 15 min prior to reading the cell plate. Different concentrations of ligands in 20 μL of PBS–BSA 0.01% were added and incubated 5 min before reading luminescence. […] The BRET ratio was measured 15 min after agonist injection. All experiments were performed at room temperature.
(§3) The pharmacological terminology adopted in this paper is consistent with IUPHAR recommendations.[68] All data are expressed as the mean ± sem of five independent experiments made in duplicate. […] Ligand efficacy was expressed as intrinsic activity (α), calculated as the ratio between the Emax of the ligand and that of the standard agonist. Count per second (CPS) measured for the RGFP and RLuc light emitted using 510(10) and 460(25) filters (PerkinElmer, Waltham, MA), respectively, was used to calculate the BRET ratio. All data are expressed as the stimulated BRET ratio, that is, the ratio between CPS from RGFP and RLuc in the presence of ligands minus the BRET ratio in vehicle-treated wells. […] Concentration–response curves to agonists were fitted to the classical four-parameter logistic nonlinear regression model [drawing 1]
(§4) Curves fitting were performed using PRISM 6.0 (GraphPad Software In., San Diego, USA).

[2] = biological target: T2, NOP receptor (NOP-RLuc/β-arrestin 2-RGFP) (Homo sapiens, UniProt P41146); test: NOP/β-arrestin 2 interaction, BRET assay in whole cells; format: cell-based; details: for NOP/β-arrestin 2 pEC50 (CL95%): BRET, whole HEK293 cells co-expressing NOP-RLuc/β-arrestin 2-RGFP, 100,000 cells/well, room temperature, mean of five independent experiments in duplicate, 95% confidence limits; for NOP/β-arrestin 2 α ± sem (intrinsic activity): Emax of ligand / Emax of N/OFQ(1–13)-NH2, mean ± sem of five experiments in duplicate; for NOP/β-arrestin 2 CR (concentration ratio): ratio between EC50 of the ligand and that of the standard agonist N/OFQ(1–13)-NH2
T2 construct: expressed in transfected cells; host or cells: HEK293 (whole cells)
T2 sequence (P41146 whole entry): as above
Experimental: as §1, §2, §3, §4

NOP receptor = test: NOP bias factor, G protein vs β-arrestin 2 (Black–Leff operational model); details: for BIAS FACTOR: supplementary CSV (molecular formula strings), repeats Tables 1–7 without confidence limits; for bias factor (CL95%), NOP: ΔΔlog(τ/KA) G protein minus β-arrestin 2, N/OFQ(1–13)-NH2 as standard unbiased ligand, positive = toward G protein, mean of at least five experiments
Text: The concentration–response curves of each compound were fitted to the Black–Leff operational model, described by Nagi and Pineyro[70] [drawing 3] where [A] is the agonist concentration, the maximal response of the system is given by Em, n is a fitting parameter for the slope, the affinity of the agonist is represented by the equilibrium dissociation constant of the agonist–receptor complex (KA), and the efficacy of the agonist is defined by τ. τ and KA are descriptive parameters of intrinsic efficacy and binding affinity and may be directly obtained by fitting the experimental data to the operational equation and can be expressed as “transduction coefficients” log(τ/KA). The relative efficiency of agonists producing activation of any pathways can thus be quantified with a “normalized” transduction coefficient, namely Δlog(τ/KA). Finally, the bias factors were calculated as difference between Δlog(τ/KA) values for a given agonist between the pathways (G protein and β-arrestin 2) [drawing 4]
Bias factors are expressed as the mean of at least five independent experiments, and CL95% are indicated. Biased factor is considered to be statistically different from 0 when 0 is not included in CL95%. α values have been statistically analyzed with one-way analysis of variance (ANOVA) followed by the Dunnett post hoc test for multiple comparisons; P values less than 0.05 were considered to be statistically significant.

[3] = biological target: N/OFQ peptide (NOP) receptor fused to Renilla luciferase (UniProt P41146)
N/OFQ peptide (NOP) receptor fused to Renilla luciferase, sequence (P41146 whole entry, the tested form may be a part): as the sequence (P41146 whole entry) above

Molecule | NOP/G protein pEC50 (CL95%) [1] | NOP/G protein α ± sem (intrinsic activity) [1] | NOP/G protein CR (concentration ratio) [1] | NOP/β-arrestin 2 pEC50 (CL95%) [2] | NOP/β-arrestin 2 α ± sem (intrinsic activity) [2] | NOP/β-arrestin 2 CR (concentration ratio) [2] | BIAS FACTOR (NOP receptor) | bias factor (CL95%), NOP (NOP receptor) | pEC50 for promoting the NOP/G protein interaction (BRET, membranes with NOP-RLuc and Gβ1-RGFP) [3] | pEC50 for promoting the NOP/β-arrestin 2 interaction (BRET, cells with NOP-RLuc and β-arrestin 2-RGFP) [3] | also measured
C[C@H](NC(=O)CNC(=O)[C@@H](NC(=O)[C@H](Cc1ccccc1)NC(=O)CNC(=O)[C@@H](C)NC(=O)[C@@H](N)Cc1ccccc1)[C@@H](C)O)C(=O)N[C@@H](CCCNC(=N)N)C(=O)N[C@@H](CCCCN)C(=O)N[C@@H](CO)C(=O)N[C@@H](C)C(=O)N[C@@H](CCCNC(=N)N)C(=O)N[C@@H](CCCCN)C(N)=O [Compound 26, [D-Ala^2]N/OFQ(1–13)-NH2] (H-F[dA]GFTGARKSARK-NH2) | 7.57 (7.28–7.86) | 1.03 ± 0.03 | 13 | 7.16 (6.94–7.34) | 0.95 ± 0.05 | 13 | 0.20 | 0.20 (−0.26–0.66) |  |  | less potent than N/OFQ(1–13)-NH2 / reduction of potency, NOP/G protein [1]: approximately 10 fold
FGGFTGARASARK-NH2 [Compound 8, [Ala^9]N/OFQ(1–13)-NH2] | 8.14 (6.88–9.41) | 0.97 ± 0.04 | 5 | 7.77 (7.43–8.11) | 1.03 ± 0.07 | 3 | -0.15 | –0.15 (−0.79–0.49) |  |  | 
FGGFTGARKAARK-NH2 [Compound 9, [Ala^10]N/OFQ(1–13)-NH2] | 9.25 (7.82–10.68) | 0.94 ± 0.04 | 0.35 | 8.43 (7.91–8.95) | 1.00 ± 0.04 | 0.68 | -0.08 | –0.08 (−0.67–0.50) |  |  | 
FGGFTGARKSAAK-NH2 [Compound 10, [Ala^12]N/OFQ(1–13)-NH2] | 7.31 (6.41–8.22) | 0.91 ± 0.04 | 31 | 6.85 (6.57–7.14) | 0.99 ± 0.05 | 26 | -0.15 | –0.15 (−0.78–0.49) |  |  | 
FGGFTGARKSARA-NH2 [Compound 11, [Ala^13]N/OFQ(1–13)-NH2] | 7.91 (7.24–8.59) | 0.96 ± 0.06 | 8 | 7.88 (7.75–8.01) | 1.03 ± 0.05 | 2 | -0.48 | –0.48 (−1.14–0.18) |  |  | 
LGGFTGARKSARK-NH2 [Compound 23, [Leu^1]N/OFQ(1–13)-NH2] | 8.19 (7.88–8.51) | 1.06 ± 0.02 | 3 | 7.87 (7.69–8.04) | 1.04 ± 0.06 | 3 | -0.08 | –0.08 (−0.53–0.37) |  |  | 
[D-Phe^3]N/OFQ(1–13)-NH2 (FG[dF]FTGARKSARK-NH2; N-terminus assumed; SMILES C[C@H](NC(=O)CNC(=O)[C@@H](NC(=O)[C@H](Cc1ccccc1)NC(=O)[C@@H](Cc1ccccc1)NC(=O)CNC(=O)[C@@H](N)Cc1ccccc1)[C@@H](C)O)C(=O)N[C@@H](CCCNC(=N)N)C(=O)N[C@@H](CCCCN)C(=O)N[C@@H](CO)C(=O)N[C@@H](C)C(=O)N[C@@H](CCCNC(=N)N)C(=O)N[C@@H](CCCCN)C(N)=O) [Compound 25] | inactive |  |  | inactive |  |  |  |  |  |  | 
[DThr^5]N/OFQ(1–13)-NH2 [Compound 14] | crc incomplete |  |  | inactive |  |  |  |  |  |  | 
FGGFTGARASARK-NH2 [[Ala^9]N/OFQ(1–13)-NH2] |  |  |  |  |  |  |  |  | 8.14 -log10 M | 7.77 -log10 M | 
FGGFAGARKSARK-NH2 [[Ala^5]N/OFQ(1–13)-NH2] |  |  |  |  |  |  |  |  | 7.12 -log10 M | 6.13 -log10 M | 
FGGFTGARKSARA-NH2 [[Ala^13]N/OFQ(1–13)-NH2] |  |  |  |  |  |  |  |  | 7.91 -log10 M | 7.88 -log10 M | 
FGGFTGARKAARK-NH2 [[Ala^10]N/OFQ(1–13)-NH2] |  |  |  |  |  |  |  |  | 9.25 -log10 M | 8.43 -log10 M | 
AGGFTGARKSARK-NH2 [[Ala^1]N/OFQ(1–13)-NH2] |  |  |  |  |  |  |  |  |  |  | concentration ratio (EC50 of the ligand / EC50 of N/OFQ(1–13)-NH2) for promoting the NOP/G protein interaction (BRET, membranes); concentration–response curve incomplete [3]: 700
FAGFTGARKSARK-NH2 [[Ala^2]N/OFQ(1–13)-NH2] |  |  |  |  |  |  |  |  | 6.36 -log10 M |  | 
FGGFTAARKSARK-NH2 [[Ala^6]N/OFQ(1–13)-NH2] |  |  |  |  |  |  |  |  | 7.66 -log10 M | 7.1 -log10 M | 
FGGFTGAAKSARK-NH2 [[Ala^8]N/OFQ(1–13)-NH2] |  |  |  |  |  |  |  |  |  |  | concentration ratio (EC50 of the ligand / EC50 of N/OFQ(1–13)-NH2) for promoting the NOP/G protein interaction (BRET, membranes); concentration–response curve incomplete [3]: 1000
FGGFTGARKSAAK-NH2 [[Ala^12]N/OFQ(1–13)-NH2] |  |  |  |  |  |  |  |  | 7.31 -log10 M | 6.85 -log10 M | 
